Drawing on ChEMBL document CHEMBL3414493, “Design, synthesis and anticholinesterase activity of novel benzylidenechroman-4-ones bearing cyclic amine side chain” (Eur J Med Chem, 2015), this text covers IC50 and Ki for 18 compounds.

For orientation: IC50 means the midpoint of a concentration-inhibition curve. Low readings indicate inhibition by little substance, high ones a need for much substance. Usually Ki stands for a dissociation constant, usually derived from enzyme kinetics or from competition with a known ligand. A low value points to a stronger hold on the target.

Assay [1] concerns the target T1, Acetylcholinesterase (Electrophorus electricus, UniProt O42275).
Description: Inhibition of electric eel AChE pre-incubated for 3 mins before acetylthiocholine substrate addition by Ellman's reagent based spectrophotometry
A further assay concerns the target Cholinesterase (Equus caballus, UniProt P81908).
In assay [2] the target is T1, Acetylcholinesterase. This is another data set of the same source.
Description: Inhibition of electric eel AChE pre-incubated for 3 mins before acetylthiocholine substrate addition by Lineweaver-Burk plot

T1 sequence (O42275 whole entry): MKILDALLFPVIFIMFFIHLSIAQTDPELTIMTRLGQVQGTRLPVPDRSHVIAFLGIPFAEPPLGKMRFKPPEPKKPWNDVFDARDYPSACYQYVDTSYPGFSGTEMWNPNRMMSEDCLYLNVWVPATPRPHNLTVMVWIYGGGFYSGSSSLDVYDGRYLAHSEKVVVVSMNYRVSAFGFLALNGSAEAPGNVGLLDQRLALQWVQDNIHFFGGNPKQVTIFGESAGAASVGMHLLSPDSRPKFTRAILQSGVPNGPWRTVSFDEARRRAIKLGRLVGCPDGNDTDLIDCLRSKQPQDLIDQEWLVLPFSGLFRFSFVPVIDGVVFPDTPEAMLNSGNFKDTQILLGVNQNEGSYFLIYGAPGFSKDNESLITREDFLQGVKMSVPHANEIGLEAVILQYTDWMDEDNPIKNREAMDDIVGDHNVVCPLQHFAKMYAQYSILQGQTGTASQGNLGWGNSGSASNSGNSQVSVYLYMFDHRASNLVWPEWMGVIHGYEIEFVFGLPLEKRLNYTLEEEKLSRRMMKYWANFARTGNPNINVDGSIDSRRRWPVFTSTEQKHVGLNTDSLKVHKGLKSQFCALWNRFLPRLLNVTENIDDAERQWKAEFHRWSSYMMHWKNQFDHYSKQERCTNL
Sequence of Cholinesterase (P81908 whole entry): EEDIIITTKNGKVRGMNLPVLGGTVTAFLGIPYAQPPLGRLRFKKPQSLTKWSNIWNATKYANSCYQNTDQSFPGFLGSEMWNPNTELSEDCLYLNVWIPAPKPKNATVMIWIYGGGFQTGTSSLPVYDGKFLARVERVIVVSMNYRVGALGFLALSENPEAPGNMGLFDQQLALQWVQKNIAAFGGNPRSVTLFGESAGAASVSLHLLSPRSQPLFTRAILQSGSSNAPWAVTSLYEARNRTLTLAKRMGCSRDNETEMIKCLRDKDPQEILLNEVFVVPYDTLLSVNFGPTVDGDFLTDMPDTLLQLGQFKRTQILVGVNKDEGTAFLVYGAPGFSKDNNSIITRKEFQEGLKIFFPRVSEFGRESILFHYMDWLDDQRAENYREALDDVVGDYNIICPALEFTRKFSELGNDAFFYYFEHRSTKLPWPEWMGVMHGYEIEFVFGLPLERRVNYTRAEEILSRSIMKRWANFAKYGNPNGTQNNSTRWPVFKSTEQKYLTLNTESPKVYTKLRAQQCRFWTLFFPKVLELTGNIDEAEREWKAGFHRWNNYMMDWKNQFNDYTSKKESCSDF

For `O=C1/C(=C/c2ccc(OCCN3CCCCC3)cc2)COc2cc(O)ccc21`, the results for the concentration for half-maximal inhibition (IC50) at Acetylcholinesterase [1] and at Cholinesterase were 0.192 µM and 2.16 µM, respectively. For `O=C1/C(=C/c2ccc(OCCCN3CCOCC3)cc2)COc2cc(O)ccc21`, the IC50 on Acetylcholinesterase [1] stood at 158 µM. As for `O=C1/C(=C/c2ccc(OCCCN3CCCCC3)cc2)COc2cc(O)ccc21`, the IC50 worked out at 2.38 µM against Acetylcholinesterase [1] and 27.4 µM against Cholinesterase. For `COc1ccc2c(c1)OC/C(=C\c1ccc(OCCN3CCOCC3)cc1)C2=O`, in that order: 1.9 µM and 11.6 µM.

As to `O=C1/C(=C/c2ccc(OCCCN3CCCC3)cc2)COc2cc(OCc3ccccc3)ccc21`, the values for the IC50 against Acetylcholinesterase [1] and on Cholinesterase were 3.5 µM and 49 µM, respectively. In the case of `CCOc1ccc2c(c1)OC/C(=C\c1ccc(OCCCN3CCCCC3)cc1)C2=O`, the IC50 against Acetylcholinesterase [1] is 0.562 µM; against Cholinesterase, 3.1 µM. Regarding `O=C1/C(=C/c2ccc(OCCCN3CCCCC3)cc2)COc2cc(OCc3ccccc3)ccc21`, the half-inhibitory concentration (IC50) against Acetylcholinesterase [1] was found to be 2.7 µM; on Cholinesterase, 32.4 µM.

Turning to `COc1ccc2c(c1)OC/C(=C\c1ccc(OCCN3CCCCC3)cc1)C2=O`, the IC50 against Acetylcholinesterase [1] stood at 0.173 µM; against Cholinesterase, 8.2 µM. As for `O=C1/C(=C/c2ccc(OCCCN3CCOCC3)cc2)COc2cc(OCc3ccccc3)ccc21`, inhibition on Acetylcholinesterase [1] was half-maximal at 50 µM (IC50). This lies in the double-digit micromolar range.

For the compound `COc1ccc2c(c1)OC/C(=C\c1ccc(OCCCN3CCOCC3)cc1)C2=O`, the IC50 on Acetylcholinesterase [1] stood at 13.9 µM; on Cholinesterase, 101 µM.

As to `O=C1/C(=C/c2ccc(OCCN3CCOCC3)cc2)COc2cc(OCc3ccccc3)ccc21`, the results for the IC50 at Acetylcholinesterase [1] and against Cholinesterase were 6.44 µM and 83.7 µM, respectively. With `CCOc1ccc2c(c1)OC/C(=C\c1ccc(OCCN3CCOCC3)cc1)C2=O`, the 50% inhibitory concentration (IC50) against Acetylcholinesterase [1] was determined as 1 µM; at Cholinesterase, 10.2 µM. For `O=C1/C(=C/c2ccc(OCCN3CCCCC3)cc2)COc2cc(OCc3ccccc3)ccc21`, in that order: 0.207 µM and 2.58 µM. Turning to `COc1ccc2c(c1)OC/C(=C\c1ccc(OCCCN3CCCCC3)cc1)C2=O`, the concentration for half-maximal inhibition (IC50) against Acetylcholinesterase [1] came to 3.29 µM; on Cholinesterase it was 26.3 µM. For `O=C1/C(=C/c2ccc(OCCN3CCOCC3)cc2)COc2cc(O)ccc21`, in that order: 8.16 µM and 96 µM. For `COc1ccc2c(c1)OC/C(=C\c1ccc(OCCCN3CCCC3)cc1)C2=O`, in that order: 1.1 µM and 6.85 µM.

For the compound `CCOc1ccc2c(c1)OC/C(=C\c1ccc(OCCN3CCCCC3)cc1)C2=O`, the half-inhibitory concentration (IC50) on Acetylcholinesterase [1] worked out at 0.122 µM; at Cholinesterase, 0.854 µM. In addition, affinity on Acetylcholinesterase [2] was put at a Ki of 0.27 µM.

Consider `CCOc1ccc2c(c1)OC/C(=C\c1ccc(OCCCN3CCOCC3)cc1)C2=O`, for which the IC50 was 6.84 µM against Acetylcholinesterase [1] and 28.7 µM at Cholinesterase.
